From ChEMBL document CHEMBL1201862, “PubChem BioAssay data set” (2004)
Values belong to the compound of their own block, whether it stands above or below them. Activity calls are given as the source filed them.

Legend:
[1] = inhibitors of Bluetongue virus cytopathic effect, confirmation, arbovirus, BSR cells (AID 1250); type: functional;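 also: protection from viral cytopathic effect measured as cell viability by ATP luminescence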
[2] = target: T1, Zinc finger protein mex-5 (Caenorhabditis elegans, UniProt Q9XUB2); test: MEX-5/TCR-2 RNA interaction inhibitors, dose response, biochemical, C. elegans, fluorescence polarization (AID 1960)
T1 sequence (Q9XUB2 whole entry): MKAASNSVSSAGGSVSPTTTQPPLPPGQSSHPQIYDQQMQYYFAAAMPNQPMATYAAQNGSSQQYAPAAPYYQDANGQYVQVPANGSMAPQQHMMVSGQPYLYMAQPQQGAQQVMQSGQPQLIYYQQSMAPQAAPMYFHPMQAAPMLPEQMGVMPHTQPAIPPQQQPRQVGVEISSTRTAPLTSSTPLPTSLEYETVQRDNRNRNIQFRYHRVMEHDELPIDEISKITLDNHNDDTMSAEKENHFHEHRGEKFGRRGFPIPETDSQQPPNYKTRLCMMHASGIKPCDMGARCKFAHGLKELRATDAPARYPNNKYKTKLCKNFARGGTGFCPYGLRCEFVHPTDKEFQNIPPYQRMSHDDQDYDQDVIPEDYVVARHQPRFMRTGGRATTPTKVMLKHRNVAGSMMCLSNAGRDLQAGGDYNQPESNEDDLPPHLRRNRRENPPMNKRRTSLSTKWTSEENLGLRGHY

[3] = target: T2, Serine/threonine-protein phosphatase (Candida dubliniensis (strain CD36 / CBS 7987 / NCPF 3949 / NRRLY-17841) (Yeast), UniProt B9W6M3); test: calcineurin pathway inhibitors in yeast reporter, dose response, S. cerevisiae, CDRE-lacZ, luminescence, secondary (AID 2388); type: functional, cell-based;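 also: yeast reporter cells carrying a calcineurin-responsive lacZ construct stimulated with calcium chloride; luminescent beta-galactosidase reporter signal in whole cells rather than isolated phosphatase activity; potency for inhibition where a drop in reporter signal means calcineurin blockade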
T2 sequence (B9W6M3 whole entry): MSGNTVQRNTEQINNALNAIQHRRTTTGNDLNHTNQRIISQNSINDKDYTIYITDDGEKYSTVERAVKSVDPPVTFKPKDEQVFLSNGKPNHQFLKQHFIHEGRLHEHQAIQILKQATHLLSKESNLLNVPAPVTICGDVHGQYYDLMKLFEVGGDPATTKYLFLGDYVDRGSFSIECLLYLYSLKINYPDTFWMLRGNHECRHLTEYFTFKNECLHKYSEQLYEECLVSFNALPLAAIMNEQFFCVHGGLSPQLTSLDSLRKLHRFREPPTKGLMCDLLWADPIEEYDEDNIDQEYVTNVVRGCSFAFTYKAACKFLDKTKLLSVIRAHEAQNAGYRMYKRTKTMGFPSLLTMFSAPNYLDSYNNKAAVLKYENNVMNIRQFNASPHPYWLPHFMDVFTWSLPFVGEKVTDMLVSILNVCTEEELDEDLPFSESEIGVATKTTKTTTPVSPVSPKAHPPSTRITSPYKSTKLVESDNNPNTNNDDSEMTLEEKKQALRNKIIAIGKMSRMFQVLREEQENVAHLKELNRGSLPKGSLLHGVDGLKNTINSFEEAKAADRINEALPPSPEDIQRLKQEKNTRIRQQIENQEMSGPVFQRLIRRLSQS

[4] = target: 72 kDa type IV collagenase (Homo sapiens, UniProt P08253); test: Dose Response validation of uHTS RPN11 inhibitor hits using a MMP-2 Fluorescence assay.; type: functional
[5] = target: Protein-tyrosine kinase 2-beta (Homo sapiens, UniProt Q14289);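 also: potency of inhibitors of PYK2 kinase phosphorylation of poly-GT substrate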
[6] = target: ATP-dependent molecular chaperone HSP82 (Candida albicans (strain WO-1) (Yeast), UniProt C4YTQ8); test: loss of DOC-induced GRE-beta-galactosidase reporter signal, dose response, Hsp90 inhibitor project, S. cerevisiae, luminescence (AID 2400); type: functional, cell-based;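 also: beta-galactosidase luminescence from glucocorticoid response element reporter as proxy for Hsp90 function; inhibitor potency where signal loss means Hsp90 inhibition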
[7] = C. albicans growth with fluconazole, confirmation, fluorescence, retest (AID 2467); type: functional, cell-based
[8] = target: T3, RNA-binding protein pos-1 (Caenorhabditis elegans, UniProt G5EF15); test: inhibitors of POS-1/mex-3 RNA binding, dose response, biochemical, fluorescence polarization (AID 1964);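 also: purified POS-1 fused to maltose binding protein made in E. coli; potency of compounds blocking POS-1 binding to fluorescent RNA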
T3 sequence (G5EF15 whole entry): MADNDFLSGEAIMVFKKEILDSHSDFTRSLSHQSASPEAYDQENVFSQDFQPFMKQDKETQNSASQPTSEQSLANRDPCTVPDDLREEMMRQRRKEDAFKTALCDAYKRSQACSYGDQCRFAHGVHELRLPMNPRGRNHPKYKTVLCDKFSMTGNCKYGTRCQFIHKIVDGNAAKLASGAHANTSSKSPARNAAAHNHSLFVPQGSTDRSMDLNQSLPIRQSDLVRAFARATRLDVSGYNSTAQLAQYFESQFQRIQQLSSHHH

[9] = target: Prothrombin (Bos taurus, UniProt P00735); test: thrombin inhibition, dose response, biochemical, fluorescence polarization, uHTS hits (AID 602369); type: functional
[10] = growth suppression of PTEN-null colon cells, dose response, cell-based, HCT116 PTEN knockout (AID 1047); type: functional;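 also: HCT116 colon tumor cells with PTEN knocked out; cells exposed to compound for 60 hours before readout; potency for loss of cell viability measured by luminescence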
[11] = target: 26S proteasome non-ATPase regulatory subunit 14 (Homo sapiens, UniProt O00487); test: inhibition of proteasome subunit RPN11 – biochemical, fluorescence polarization, uHTS hits, confirmation (AID 602368); type: functional
[12] = NIH-3T3 fibroblast cytotoxicity, dose response, cytotoxicity control, cell-based, fluorescence, Alamar Blue, secondary assay (AID 2327); type: functional;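 also: NIH-3T3 mouse fibroblasts cultured with fluconazole at 8 µg/mL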
[13] = growth suppression of beta-catenin-knockout colon cells, dose response, cell-based, HCT116, human colon tumor (AID 1045); type: functional;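 also: HCT116 colon tumor cells with beta catenin knocked out; cells exposed to compound for 60 hours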
[14] = target: T4, Estrogen receptor (Homo sapiens, UniProt P03372); test: ERα–SRC-3 coactivator interaction inhibitors, confirmation, orthogonal assay, biochemical, ELISA, streptavidin-HRP readout (AID 1079)
T4 sequence (P03372 whole entry): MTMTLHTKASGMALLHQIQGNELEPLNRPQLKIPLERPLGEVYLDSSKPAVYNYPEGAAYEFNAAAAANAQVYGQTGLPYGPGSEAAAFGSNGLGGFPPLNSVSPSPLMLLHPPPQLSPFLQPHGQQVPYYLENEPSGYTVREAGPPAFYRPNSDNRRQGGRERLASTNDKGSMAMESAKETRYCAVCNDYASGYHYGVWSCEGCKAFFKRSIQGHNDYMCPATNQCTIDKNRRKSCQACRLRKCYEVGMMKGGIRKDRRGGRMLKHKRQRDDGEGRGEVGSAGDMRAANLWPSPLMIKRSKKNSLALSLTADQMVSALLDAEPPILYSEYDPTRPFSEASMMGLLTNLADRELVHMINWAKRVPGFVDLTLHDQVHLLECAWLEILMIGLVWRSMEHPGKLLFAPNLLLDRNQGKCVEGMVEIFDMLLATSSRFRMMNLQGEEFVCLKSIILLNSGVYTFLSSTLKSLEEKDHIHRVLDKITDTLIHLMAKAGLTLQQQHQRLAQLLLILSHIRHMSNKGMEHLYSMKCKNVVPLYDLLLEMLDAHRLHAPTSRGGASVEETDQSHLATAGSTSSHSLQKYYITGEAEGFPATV

[15] = target: Estrogen receptor beta (Homo sapiens, UniProt Q92731); test: ERβ–SRC-3 coactivator interaction inhibitors, confirmation, orthogonal assay, biochemical, ELISA, streptavidin-HRP readout (AID 1060)
[16] = target: Ion channel NompC (Danio rerio, UniProt Q7T1G6); test: Fluorescence counterscreen assay for TRPML3 agonists: dose response cell-based high-throughput screening assay to identify agonists of the transient receptor potential channel N1 (TRPN1). [Related pubchem assays: 1526, 1424, 1448 ]; type: functional
[17] = target: Mucolipin-3 (Homo sapiens, UniProt Q8TDD5); test: Dose response cell-based high-throughput screening assay for agonists of the transient receptor potential channel ML3 (TRPML3). [Related pubchem assays: 1526, 1424, 1448 ]; type: functional
[18] = target: Inward rectifier potassium channel 2 (Mus musculus, UniProt P35561); test: Manual electrophysiological patch clamp assay for SAR compounds that inhibit/block inward-rectifying potassium ion channel Kir2.1. [Related pubchem assays: 1843 (Summary assay for Kir2.1 inhibitor assays.), 1672 (Primary HTS of 305616 compounds where 2592 were identified as active.)]; type: functional
Inward rectifier potassium channel 2, sequence (P35561 whole entry): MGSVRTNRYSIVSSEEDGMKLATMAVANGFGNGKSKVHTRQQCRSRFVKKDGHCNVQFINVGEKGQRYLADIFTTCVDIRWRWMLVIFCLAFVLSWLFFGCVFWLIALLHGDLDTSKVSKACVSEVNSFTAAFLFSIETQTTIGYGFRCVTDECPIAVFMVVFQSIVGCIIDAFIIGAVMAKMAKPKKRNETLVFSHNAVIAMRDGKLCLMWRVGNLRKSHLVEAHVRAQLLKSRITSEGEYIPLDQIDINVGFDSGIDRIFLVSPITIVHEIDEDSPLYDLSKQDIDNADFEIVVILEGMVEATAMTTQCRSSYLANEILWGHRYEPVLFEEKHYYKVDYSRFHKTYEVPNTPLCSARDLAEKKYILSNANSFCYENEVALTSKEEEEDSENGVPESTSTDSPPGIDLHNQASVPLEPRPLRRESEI

26S proteasome non-ATPase regulatory subunit 14, sequence (O00487 whole entry): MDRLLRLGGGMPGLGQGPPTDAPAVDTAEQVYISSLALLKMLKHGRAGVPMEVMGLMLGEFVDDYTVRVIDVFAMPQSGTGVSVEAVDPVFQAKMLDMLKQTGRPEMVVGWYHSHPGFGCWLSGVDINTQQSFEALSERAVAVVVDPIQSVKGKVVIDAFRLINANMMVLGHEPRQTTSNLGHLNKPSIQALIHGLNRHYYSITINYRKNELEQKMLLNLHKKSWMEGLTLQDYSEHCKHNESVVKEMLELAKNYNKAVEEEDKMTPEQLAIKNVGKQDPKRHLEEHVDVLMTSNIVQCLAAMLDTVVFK
72 kDa type IV collagenase, sequence (P08253 whole entry): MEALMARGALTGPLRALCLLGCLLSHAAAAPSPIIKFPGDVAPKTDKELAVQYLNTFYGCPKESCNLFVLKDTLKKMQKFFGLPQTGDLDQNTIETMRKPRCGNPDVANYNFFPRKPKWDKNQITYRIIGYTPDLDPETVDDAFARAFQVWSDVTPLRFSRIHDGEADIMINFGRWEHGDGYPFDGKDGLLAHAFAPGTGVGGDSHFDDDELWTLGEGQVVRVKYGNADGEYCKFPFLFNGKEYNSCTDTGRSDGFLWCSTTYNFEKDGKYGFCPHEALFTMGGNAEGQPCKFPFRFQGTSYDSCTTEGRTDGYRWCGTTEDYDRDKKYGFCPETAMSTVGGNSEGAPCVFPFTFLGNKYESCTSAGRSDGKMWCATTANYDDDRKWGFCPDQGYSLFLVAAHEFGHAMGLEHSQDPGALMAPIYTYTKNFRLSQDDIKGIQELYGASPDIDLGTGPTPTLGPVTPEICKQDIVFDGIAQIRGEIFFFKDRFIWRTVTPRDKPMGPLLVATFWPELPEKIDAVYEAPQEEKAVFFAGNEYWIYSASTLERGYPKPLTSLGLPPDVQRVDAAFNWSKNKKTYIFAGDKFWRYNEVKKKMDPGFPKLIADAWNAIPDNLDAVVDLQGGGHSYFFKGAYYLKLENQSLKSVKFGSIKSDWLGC
Ion channel NompC, sequence (Q7T1G6 whole entry): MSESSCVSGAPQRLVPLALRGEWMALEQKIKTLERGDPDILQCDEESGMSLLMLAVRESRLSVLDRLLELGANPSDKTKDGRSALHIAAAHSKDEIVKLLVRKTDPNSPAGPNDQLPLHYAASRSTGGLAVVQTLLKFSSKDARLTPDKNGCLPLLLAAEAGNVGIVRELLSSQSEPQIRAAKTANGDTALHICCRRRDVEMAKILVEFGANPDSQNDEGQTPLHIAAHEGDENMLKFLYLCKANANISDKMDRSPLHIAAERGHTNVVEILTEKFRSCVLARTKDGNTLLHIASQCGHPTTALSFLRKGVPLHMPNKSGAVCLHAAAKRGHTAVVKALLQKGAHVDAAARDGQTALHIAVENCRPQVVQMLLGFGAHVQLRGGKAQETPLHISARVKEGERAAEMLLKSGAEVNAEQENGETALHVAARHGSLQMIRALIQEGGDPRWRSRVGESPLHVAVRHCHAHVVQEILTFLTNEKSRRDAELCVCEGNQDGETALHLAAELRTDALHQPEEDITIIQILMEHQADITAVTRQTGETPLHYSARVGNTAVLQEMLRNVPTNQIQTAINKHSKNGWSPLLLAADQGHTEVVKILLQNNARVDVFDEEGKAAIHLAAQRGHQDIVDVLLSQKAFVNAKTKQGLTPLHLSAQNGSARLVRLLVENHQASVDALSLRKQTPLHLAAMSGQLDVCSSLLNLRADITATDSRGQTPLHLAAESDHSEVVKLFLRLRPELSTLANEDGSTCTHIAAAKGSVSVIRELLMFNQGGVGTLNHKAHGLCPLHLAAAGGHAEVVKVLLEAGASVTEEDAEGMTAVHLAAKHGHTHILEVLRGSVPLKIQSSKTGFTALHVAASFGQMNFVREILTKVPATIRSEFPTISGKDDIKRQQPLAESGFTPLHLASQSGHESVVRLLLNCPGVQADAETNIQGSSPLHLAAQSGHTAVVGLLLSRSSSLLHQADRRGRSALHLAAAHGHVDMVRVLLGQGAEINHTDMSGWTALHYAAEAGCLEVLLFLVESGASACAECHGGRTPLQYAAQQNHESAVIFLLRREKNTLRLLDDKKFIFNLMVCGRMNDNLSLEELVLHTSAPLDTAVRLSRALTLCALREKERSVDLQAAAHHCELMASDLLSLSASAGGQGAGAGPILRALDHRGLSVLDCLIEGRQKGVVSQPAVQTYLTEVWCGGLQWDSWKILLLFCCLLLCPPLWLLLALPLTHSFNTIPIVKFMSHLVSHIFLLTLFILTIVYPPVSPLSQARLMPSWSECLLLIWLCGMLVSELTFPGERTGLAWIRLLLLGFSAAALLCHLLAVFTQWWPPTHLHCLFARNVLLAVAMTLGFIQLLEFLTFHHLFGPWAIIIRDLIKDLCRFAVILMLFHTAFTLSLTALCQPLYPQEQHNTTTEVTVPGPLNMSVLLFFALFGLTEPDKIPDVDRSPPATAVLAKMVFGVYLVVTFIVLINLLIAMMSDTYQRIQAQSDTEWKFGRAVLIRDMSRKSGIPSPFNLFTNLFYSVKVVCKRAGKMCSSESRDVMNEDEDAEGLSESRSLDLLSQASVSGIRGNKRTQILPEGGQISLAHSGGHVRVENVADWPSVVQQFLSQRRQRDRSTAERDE
ATP-dependent molecular chaperone HSP82, sequence (C4YTQ8 whole entry): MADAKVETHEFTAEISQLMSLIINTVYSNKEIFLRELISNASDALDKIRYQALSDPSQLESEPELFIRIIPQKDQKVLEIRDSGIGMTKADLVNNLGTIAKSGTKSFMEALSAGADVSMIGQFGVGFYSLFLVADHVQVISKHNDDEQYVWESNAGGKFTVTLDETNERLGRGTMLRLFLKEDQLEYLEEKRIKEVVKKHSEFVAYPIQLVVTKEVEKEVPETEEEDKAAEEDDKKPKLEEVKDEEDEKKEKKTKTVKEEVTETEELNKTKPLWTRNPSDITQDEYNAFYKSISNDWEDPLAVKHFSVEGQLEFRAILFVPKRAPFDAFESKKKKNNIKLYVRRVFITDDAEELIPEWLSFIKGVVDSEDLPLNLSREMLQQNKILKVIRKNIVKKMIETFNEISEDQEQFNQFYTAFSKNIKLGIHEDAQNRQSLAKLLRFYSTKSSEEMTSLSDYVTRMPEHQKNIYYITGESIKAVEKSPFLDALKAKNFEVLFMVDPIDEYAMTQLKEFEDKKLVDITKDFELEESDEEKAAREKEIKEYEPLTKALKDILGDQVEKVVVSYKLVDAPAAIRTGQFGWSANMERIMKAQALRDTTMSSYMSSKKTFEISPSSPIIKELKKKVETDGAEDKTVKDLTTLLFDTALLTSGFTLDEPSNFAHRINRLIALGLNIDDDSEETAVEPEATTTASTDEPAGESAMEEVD
Estrogen receptor beta, sequence (Q92731 whole entry): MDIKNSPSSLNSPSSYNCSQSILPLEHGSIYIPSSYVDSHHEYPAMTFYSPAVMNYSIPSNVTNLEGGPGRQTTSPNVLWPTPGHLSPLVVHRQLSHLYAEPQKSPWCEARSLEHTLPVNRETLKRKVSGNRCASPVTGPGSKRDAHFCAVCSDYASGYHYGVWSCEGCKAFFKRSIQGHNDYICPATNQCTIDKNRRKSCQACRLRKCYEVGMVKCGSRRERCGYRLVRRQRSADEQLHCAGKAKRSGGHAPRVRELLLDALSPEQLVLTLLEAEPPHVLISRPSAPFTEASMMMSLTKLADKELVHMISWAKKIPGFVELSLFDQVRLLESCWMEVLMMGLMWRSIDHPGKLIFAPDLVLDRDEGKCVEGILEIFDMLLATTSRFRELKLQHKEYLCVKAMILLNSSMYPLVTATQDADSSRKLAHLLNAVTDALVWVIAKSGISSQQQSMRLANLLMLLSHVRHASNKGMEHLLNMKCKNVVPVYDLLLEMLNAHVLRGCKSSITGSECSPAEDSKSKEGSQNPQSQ
Mucolipin-3, sequence (Q8TDD5 whole entry): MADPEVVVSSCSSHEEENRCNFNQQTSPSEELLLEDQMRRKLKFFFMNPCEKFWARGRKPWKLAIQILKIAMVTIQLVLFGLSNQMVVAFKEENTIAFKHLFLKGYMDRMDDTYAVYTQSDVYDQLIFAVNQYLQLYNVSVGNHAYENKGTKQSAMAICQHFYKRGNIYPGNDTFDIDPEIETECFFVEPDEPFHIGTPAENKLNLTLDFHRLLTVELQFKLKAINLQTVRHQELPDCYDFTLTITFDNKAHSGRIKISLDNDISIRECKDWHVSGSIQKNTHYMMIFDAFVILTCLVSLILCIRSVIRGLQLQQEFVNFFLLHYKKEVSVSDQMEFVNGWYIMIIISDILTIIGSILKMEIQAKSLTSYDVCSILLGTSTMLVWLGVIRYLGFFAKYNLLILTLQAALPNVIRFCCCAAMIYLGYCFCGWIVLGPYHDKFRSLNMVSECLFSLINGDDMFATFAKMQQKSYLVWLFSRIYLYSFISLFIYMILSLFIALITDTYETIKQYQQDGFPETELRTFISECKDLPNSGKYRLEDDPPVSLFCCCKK

SMILES: COC(=O)c1ccc(COc2ccc(/C=C(\C#N)c3nc4ccccc4[nH]3)cc2OC)o1
- EC50 [2]: > 300 µM (not active)
- EC50 [3]: > 180 µM (inactive)
- IC50 [4]: > 100 µM (inactive)
- IC50 [5]: > 69.5 µM (not active)
- EC50 [6]: > 160 µM (inactive)
- EC50 [7]: 3.83 µM (active)
- EC50 [8]: > 300 µM (not active)
- IC50 [9]: 11.4 µM (active)
- EC50 [10]: 79.7 µM (active)
- IC50 [11]: 4.93 µM (active)
- EC50 [12]: > 160 µM (inconclusive)
- EC50 [13]: 88.4 µM (active)

SMILES: COc1ccc(CNCc2ccc(C(C)(C)C)cc2)cc1
- IC50 [18]: 1.27 µM (active)

Now from value to compound:

- IC50 [1]: 28.9 µM (active)
SMILES: CCNC(=O)NC(=O)C(C)Sc1nc2cc(C(=O)OC)ccc2c(=O)n1-c1ccccc1 (stereo not drawn)

- IC50 [14]: 0.09 µM (not active)
- IC50 [15]: 0.957 µM (not active)
SMILES: N#Cc1ccccc1N1CCN(C(=O)CCCCCn2c(=S)[nH]c3ccccc3c2=O)CC1

- EC50 [16]: > 29.9 µM (not active)
- EC50 [17]: > 29.9 µM (not active)
SMILES: CCC(C(=O)Nc1cc(C)nn1-c1nc(C)cc(C)n1)c1ccccc1 (stereo not drawn)
